According to patent publication US5354843A, “Flanking peptides of calcitonin and processes for their manufacture” (Ciba-Geigy Corporation, priority 1988, dated 1994):

Experiment: isoelectric point
Type: physicochemical
Source text: FAB-MS: MH^+ 6220 (calculated molecular weight: 6220), isoelectric point: 4.2 (calculated: 4.04).

With “human procalcitonin amino-terminal flanking peptide [PCATFP]” the isoelectric point was 4.2.
